This passage reports IC50 results from US20240116985A1, “STAPLED PEPTIDES AND METHODS THEREOF” (priority 2020, published 2024).

Test [1] deals with T1, full-length beta-Catenin (Uniprot ID P35222) (Homo sapiens, UniProt P35222).
T1 construct: 10 nM full-length beta-Catenin (Uniprot ID P35222)
T1 sequence (P35222 1-781): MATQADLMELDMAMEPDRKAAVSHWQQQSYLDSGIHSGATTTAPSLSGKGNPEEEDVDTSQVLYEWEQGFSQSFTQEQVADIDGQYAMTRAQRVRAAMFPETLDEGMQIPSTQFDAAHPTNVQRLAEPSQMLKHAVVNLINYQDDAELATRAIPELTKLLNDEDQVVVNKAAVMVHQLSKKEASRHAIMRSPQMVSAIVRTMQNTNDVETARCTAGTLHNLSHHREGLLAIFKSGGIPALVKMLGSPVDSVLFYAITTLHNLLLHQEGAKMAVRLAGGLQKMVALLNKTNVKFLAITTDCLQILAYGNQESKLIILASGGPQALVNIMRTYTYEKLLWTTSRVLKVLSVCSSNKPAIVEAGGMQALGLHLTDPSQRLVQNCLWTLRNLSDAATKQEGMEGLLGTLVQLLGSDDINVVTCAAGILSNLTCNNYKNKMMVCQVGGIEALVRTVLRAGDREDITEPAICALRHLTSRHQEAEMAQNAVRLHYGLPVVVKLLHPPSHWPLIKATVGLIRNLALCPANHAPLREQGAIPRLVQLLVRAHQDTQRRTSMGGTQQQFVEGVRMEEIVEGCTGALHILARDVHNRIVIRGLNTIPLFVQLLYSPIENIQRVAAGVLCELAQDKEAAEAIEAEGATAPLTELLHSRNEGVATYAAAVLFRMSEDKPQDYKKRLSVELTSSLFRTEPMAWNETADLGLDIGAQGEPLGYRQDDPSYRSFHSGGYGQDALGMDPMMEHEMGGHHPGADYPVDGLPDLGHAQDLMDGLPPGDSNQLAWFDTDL
In words: Fluorescence polarization IC50 (beta-catenin / 5FAM-TCF4 10-53 competition). It counts as binding. To be noted: fluorescence polarization; read-out: beta-Catenin FP IC50. A general note: Fluorescence polarisation rises when a labelled molecule tumbles more slowly, as on binding a larger partner.

Test [2] concerns the target T2, beta-catenin/TCF4 engagement (Homo sapiens, UniProt P35222).
T2 construct: expressed in transfected cells; host or cells: HEK293
T2 sequence (P35222 1-781): T1 sequence (P35222 1-781)
Briefly: Nano-BRET target engagement assay (B-cat-Halo & TCF4-Luc in HEK293 cells). Type of test: cell-based. To be noted: read-out: NanoBRET Abs IC50.

SMILES strings stand for the structures. Like-named read-outs stand apart in the source and are kept apart here.

As for `CC(=O)N1CCC[C@]12CC=CCCCC1(CCCC=CCCCOC(=O)N3CC[C@@](C(=O)N[C@@H](Cc4ccsc4)C(=O)N[C@@H](Cc4csc5ccccc45)C(=O)N[C@H](C(N)=O)C(C)C)(C3)NC(=O)[C@H](CC(C)C)NC(=O)[C@H](Cc3ccccc3)NC(=O)[C@H](C)NC(=O)[C@H](CO)NC(=O)[C@H](Cc3cccc(C(=O)O)c3)NC(=O)[C@H](CC(=O)O)NC1=O)NC(=O)[C@H](CC(C)(C)C)NC(=O)[C@H](CC(=O)O)NC2=O` (stereo partly drawn) [I-2190, Ac-PL3-Asp-Npg-B5-Asp-3COOHF-Ser-Ala-Phe-Leu-PyrS2-3Thi-BztA-Val-NH2], the figures for the IC50 in test [1] and in test [2] were 28 nM and 33400 nM, respectively.
The like results for `CC(=O)N1CCC[C@]12CC=CCCCC1(CCCC=CCCCOC(=O)N3CC[C@@](C(=O)N[C@@H](Cc4ccsc4)C(=O)N[C@@H](Cc4csc5ccccc45)C(=O)N[C@H](C(N)=O)C(C)C)(C3)NC(=O)[C@H](CC(C)C)NC(=O)[C@H](Cc3ccccc3)NC(=O)[C@H](C)NC(=O)[C@H](CC(=O)N(C)C)NC(=O)[C@H](Cc3cccc(C(=O)O)c3)NC(=O)[C@H](CC(=O)O)NC1=O)NC(=O)[C@H](CC(C)(C)C)NC(=O)[C@H](CC(=O)O)NC2=O` (stereo partly drawn) [I-2191, Ac-PL3-Asp-Npg-B5-Asp-3COOHF-Me2Asn-Ala-Phe-Leu-PyrS2-3Thi-BztA-Val-NH2] were, in that order, 16 nM and 29500 nM.
Regarding `CC(=O)N1CCC[C@]12CC=CCCCC1(CCCC=CCCCOC(=O)N3CC[C@@](C(=O)N[C@@H](Cc4ccsc4)C(=O)N[C@@H](Cc4csc5ccccc45)C(=O)N[C@@H](CC(C)(C)C)C(N)=O)(C3)NC(=O)[C@H](CC(C)C)NC(=O)[C@H](Cc3ccccc3)NC(=O)[C@H](C)NC(=O)[C@H](CCC(N)=O)NC(=O)[C@H](Cc3cccc(C(=O)O)c3)NC(=O)[C@H](CC(=O)O)NC1=O)NC(=O)[C@H](CC(C)(C)C)NC(=O)[C@H](CC(=O)O)NC2=O` (stereo partly drawn) [I-2192, Ac-PL3-Asp-Npg-B5-Asp-3COOHF-Gln-Ala-Phe-Leu-PyrS2-3Thi-BztA-Npg-NH2], the IC50 in test [1] worked out at 22 nM; in test [2], 16100 nM.
The like results for `CCCC[C@@H]1NC(=O)[C@H](Cc2cccc(C(=O)O)c2)NC(=O)[C@H](CC(=O)O)NC(=O)C2(CCCC=CCCCOC(=O)N3CC[C@@](C(=O)N[C@@H](Cc4ccsc4)C(=O)N[C@@H](Cc4csc5ccccc45)C(=O)N[C@@H](CC(C)(C)C)C(N)=O)(C3)NC(=O)[C@H](CC(C)C)NC(=O)[C@H](Cc3ccccc3)NC(=O)[C@H](C)NC1=O)CCCC=CC[C@]1(CCCN1C(C)=O)C(=O)N[C@@H](CC(=O)O)C(=O)N[C@@H](CC(C)(C)C)C(=O)N2` (stereo partly drawn) [I-2193, Ac-PL3-Asp-Npg-B5-Asp-3COOHF-nLeu-Ala-Phe-Leu-PyrS2-3Thi-BztA-Npg-NH2] were, in that order, 164 nM and 39900 nM.
The like results for `CC(=O)N1CCC[C@]12CC=CCCCC1(CCCC=CCCCOC(=O)N3CC[C@@](C(=O)N[C@@H](Cc4ccsc4)C(=O)N[C@@H](Cc4csc5ccccc45)C(=O)N[C@@H](CC(C)(C)C)C(N)=O)(C3)NC(=O)[C@H](CC(C)C)NC(=O)[C@H](Cc3ccccc3)NC(=O)[C@H](C)NC(=O)C(C)(C)NC(=O)[C@H](Cc3cccc(C(=O)O)c3)NC(=O)[C@H](CC(=O)O)NC1=O)NC(=O)[C@H](CC(C)(C)C)NC(=O)[C@H](CC(=O)O)NC2=O` (stereo partly drawn) [I-2194, Ac-PL3-Asp-Npg-B5-Asp-3COOHF-Aib-Ala-Phe-Leu-PyrS2-3Thi-BztA-Npg-NH2] were, in that order, 91 nM and 8800 nM.
The like results for `CC(=O)N1CCC[C@]12CC=CCCCC1(CCCC=CCCCOC(=O)N3CC[C@@](C(=O)N[C@@H](Cc4ccsc4)C(=O)N[C@@H](Cc4csc5ccccc45)C(=O)N[C@@H](CC(C)(C)C)C(N)=O)(C3)NC(=O)[C@H](CC(C)C)NC(=O)[C@H](Cc3ccccc3)NC(=O)[C@H](C)NC(=O)[C@H](CO)NC(=O)[C@H](Cc3cccc(C(=O)O)c3)NC(=O)[C@H](CC(=O)O)NC1=O)NC(=O)[C@H](CC(C)(C)C)NC(=O)[C@H](CC(=O)O)NC2=O` (stereo partly drawn) [I-2195, Ac-PL3-Asp-Npg-B5-Asp-3COOHF-Ser-Ala-Phe-Leu-PyrS2-3Thi-BztA-Npg-NH2] were, in that order, 62 nM and 21000 nM.
`CC(=O)N1CCC[C@]12CC=CCCCC1(CCCC=CCCCOC(=O)N3CC[C@@](C(=O)N[C@@H](Cc4ccsc4)C(=O)N[C@@H](Cc4csc5ccccc45)C(=O)N[C@@H](CO)C(N)=O)(C3)NC(=O)[C@H](CC(C)C)NC(=O)[C@H](Cc3ccccc3)NC(=O)[C@H](C)NC(=O)[C@H](C)NC(=O)[C@H](Cc3ccc(F)c(C(=O)O)c3)NC(=O)[C@H](CC(=O)O)NC1=O)NC(=O)[C@H](CC(C)(C)C)NC(=O)[C@H](CC(=O)O)NC2=O` (stereo partly drawn) [I-2202, Ac-PL3-Asp-Npg-B5-Asp-4F3COOHF-Ala-Ala-Phe-Leu-PyrS2-3Thi-BztA-Ser-NH2]: the 50% inhibitory concentration (IC50) in test [1] came out at 11 nM; in test [2] it was 5000 nM.
With `CC(=O)N1CCC[C@]12CC=CCCCC1(CCCC=CCCCOC(=O)N3CC[C@@](C(=O)N[C@@H](Cc4ccccc4Cl)C(=O)N[C@@H](Cc4csc5ccccc45)C(=O)N[C@@H](CCC(N)=O)C(N)=O)(C3)NC(=O)[C@H](CC(C)C)NC(=O)[C@H](Cc3ccccc3)NC(=O)[C@H](C)NC(=O)[C@H](C)NC(=O)[C@H](Cc3ccc(F)c(C(=O)O)c3)NC(=O)[C@H](CC(=O)O)NC1=O)NC(=O)[C@H](CC(C)(C)C)NC(=O)[C@H](CC(=O)O)NC2=O` (stereo partly drawn) [I-2203, Ac-PL3-Asp-Npg-B5-Asp-4F3COOHF-Ala-Ala-Phe-Leu-PyrS2-2C1F-BztA-Gln-NH2], the IC50 amounted to 9 nM in test [1] and 2900 nM in test [2].
The like results for `CC(=O)N1CCC[C@]12CC=CCCCC1(CCCC=CCCCOC(=O)N3CC[C@@](C(=O)N[C@@H](Cc4ccccc4Cl)C(=O)N[C@@H](Cc4csc5ccccc45)C(=O)N[C@@H](CCC(N)=O)C(N)=O)(C3)NC(=O)[C@H](CC(C)C)NC(=O)[C@H](Cc3ccccc3)NC(=O)[C@H](C)NC(=O)[C@H](C)NC(=O)[C@H](Cc3ccc(F)c(C(=O)O)c3)NC(=O)[C@H](CC(=O)O)NC1=O)NC(=O)[C@H](CC(C)(C)C)NC(=O)[C@H](CC(=O)O)NC2=O` (stereo partly drawn) [I-2204, Ac-PL3-Asp-Npg-B5-Asp-4F3COOHF-Ala-Ala-Phe-Leu-PyrS2-2C1F-BztA-Gln-NH2] were, in that order, 10 nM and 3300 nM.
The like results for `CC(=O)N1CCC[C@]12CC=CCCCC1(CCCC=CCCCOC(=O)N3CC[C@@](C(=O)N[C@@H](Cc4ccccc4Cl)C(=O)N[C@@H](Cc4csc5ccccc45)C(=O)N[C@@H](CO)C(N)=O)(C3)NC(=O)[C@H](CC(C)C)NC(=O)[C@H](Cc3ccccc3)NC(=O)[C@H](C)NC(=O)[C@H](C)NC(=O)[C@H](Cc3ccc(F)c(C(=O)O)c3)NC(=O)[C@H](CC(=O)O)NC1=O)NC(=O)[C@H](CC(C)(C)C)NC(=O)[C@H](CC(=O)O)NC2=O` (stereo partly drawn) [I-2205, Ac-PL3-Asp-Npg-B5-Asp-4F3COOHF-Ala-Ala-Phe-Leu-PyrS2-2C1F-BztA-Ser-NH2] were, in that order, 18 nM and 3200 nM.
The like results for `CC(=O)N1CCC[C@]12CC=CCCCC1(CCCC=CCCCOC(=O)N3CC[C@@](C(=O)N[C@@H](Cc4ccsc4)C(=O)N[C@@H](Cc4csc5ccccc45)C(=O)N[C@@H](C)C(N)=O)(C3)NC(=O)[C@H](CC(C)C)NC(=O)[C@H](Cc3ccccc3)NC(=O)[C@H](C)NC(=O)[C@H](CCC(N)=O)NC(=O)[C@H](Cc3ccc(F)c(C(=O)O)c3)NC(=O)[C@H](CC(=O)O)NC1=O)NC(=O)[C@H](CC(C)(C)C)NC(=O)[C@H](CC(=O)O)NC2=O` (stereo partly drawn) [I-2206, Ac-PL3-Asp-Npg-B5-Asp-4F3COOHF-Gln-Ala-Phe-Leu-PyrS2-3Thi-BztA-Ala-NH2] were, in that order, 7 nM and 7100 nM.
Turning to `CC(=O)N1CCC[C@]12CC=CCCCC1(CCCC=CCCCOC(=O)N3CC[C@@](C(=O)N[C@@H](Cc4ccsc4)C(=O)N[C@@H](Cc4csc5ccccc45)C(=O)N[C@@H](C)C(N)=O)(C3)NC(=O)[C@H](CC(C)C)NC(=O)[C@H](Cc3ccccc3)NC(=O)[C@H](C)NC(=O)C(C)(C)NC(=O)[C@H](Cc3ccc(F)c(C(=O)O)c3)NC(=O)[C@H](CC(=O)O)NC1=O)NC(=O)[C@H](CC(C)(C)C)NC(=O)[C@H](CC(=O)O)NC2=O` (stereo partly drawn) [I-2207, Ac-PL3-Asp-Npg-B5-Asp-4F3COOHF-Aib-Ala-Phe-Leu-PyrS2-3Thi-BztA-Ala-NH2], the results for the concentration for half-maximal inhibition (IC50) in test [1] and in test [2] (absolute IC50) were 16 nM and 3200 nM, respectively.
The like results for `CC(=O)N1CCC[C@]12CC=CCCCC1(CCCC=CCCCOC(=O)N3CC[C@@](C(=O)N[C@@H](Cc4ccsc4)C(=O)N[C@@H](Cc4csc5ccccc45)C(=O)N[C@@H](CCC(N)=O)C(N)=O)(C3)NC(=O)[C@H](CC(C)C)NC(=O)[C@H](Cc3ccccc3)NC(=O)[C@H](C)NC(=O)[C@H](C)NC(=O)[C@H](Cc3cc(C(=O)O)cc(C(F)(F)F)c3)NC(=O)[C@H](CC(=O)O)NC1=O)NC(=O)[C@H](CC(C)(C)C)NC(=O)[C@H](CC(=O)O)NC2=O` (stereo partly drawn) [I-2208, Ac-PL3-Asp-Npg-B5-Asp-5F3Me3COOHF-Ala-Ala-Phe-Leu-PyrS2-3Thi-BztA-Gln-NH2] were, in that order, 27 nM and 5700 nM.

Usually IC50 stands for the point on the concentration scale where inhibition reaches its midpoint.
